Measured values reported in patent US7838659B2, “Herpesvirus ribozymes and vectors” (priority 2003, dated 2010).

Key:
Assay type in all cases: cell-based
[1] = tested on: HSV-1 tkLTRZ1 (drug resistant); assay: Multi-step replication, comparison with acyclovir, strain tkLTRZ1; conditions: strain tkLTRZ1, MOI 10^−3, 48 hours, rabbit skin cells
Protocol: (§1) Four groups were included when testing the impact of the ribozyme on replication of drug resistant HSV-1 strains: mock infection and Ad-UL20 Rz treatments were performed as before; an adenovirus expressing GFP was used instead of ψ5; and an acyclovir (ACV) treatment (0.1 μM) was included. The dosage of acyclovir was determined by the threshold dose needed to distinguish drug resistance of HSV-1 (Thi, T. N., C. Deback, I. Malet, P. Bonnafous, Z. Ait-Arkoub, and H. Agut. 2006. Rapid determination of antiviral drug susceptibility of herpes simplex virus types 1 and 2 by real-time PCR. Antiviral Res 69:152-7). Forty-eight hours were allowed for HSV-1 infection to develop before cell lysates were harvested for titration. Five HSV-1 strains were tested: 17syn+ and KOS are drug sensitive strains, and PAAr5, tkLTRZ1, and ACG^r4 are drug resistant isolates.
(§2) UL20-Rz154 inhibits viral replication of HSV-1 drug resistant strains. Ad-UL20 Rz154 was compared with acyclovir treatment in a multi-step infection at an MOI of 10^−3. […] In the case of PAAr5 infection, UL20 ribozyme reduced viral production by 99%; against tkLTRZ1 infection, it reduced virus yield by 76%; and against ACGr4 by 70%. Therefore, knocking down the expression of the UL20 gene led to a significant inhibition of HSV-1 viral replication in viral strains that were resistant to a conventional antiviral drug.

[2] = tested on: HSV-1 KOS (drug sensitive); assay: Multi-step replication, comparison with acyclovir, strain KOS; conditions: MOI 10^−3, 48 hours, rabbit skin cells
Protocol: as §1, §2

[3] = tested on: HSV-1 17syn+ (drug sensitive); assay: Multi-step replication, comparison with acyclovir, strain 17syn+; conditions: MOI 10^−3, 48 hours, rabbit skin cells
Protocol: as §1, §2

[4] = tested on: HSV-1 ACGr4 (drug resistant); assay: Multi-step replication, comparison with acyclovir, strain ACGr4; conditions: strain ACGr4, MOI 10^−3, 48 hours, rabbit skin cells
Protocol: as §1, §2

[5] = tested on: HSV-1 PAAr5 (drug resistant); assay: Multi-step replication, comparison with acyclovir, strain PAAr5; conditions: strain PAAr5, MOI 10^−3, 48 hours, rabbit skin cells
Protocol: as §1, §2

Compound: Nc1nc2c(ncn2COCCO)c(=O)[nH]1 [acyclovir]
- reduction of virus yield [1]: no significant difference in HSV yields
- inhibition of HSV-1 viral production [2]: 80%
- inhibition of HSV-1 viral production [3]: 99%
- reduction of virus yield [4]: no significant difference in HSV yields
- reduction of viral production [5]: no significant difference in HSV yields
